ChEMBL document CHEMBL1152232, “Muscarinic acetylcholine receptor antagonists: SAR and optimization of tyrosine ureas” (Bioorg Med Chem Lett, 2008)

What was measured:
[1] = target: T1, Muscarinic acetylcholine receptor M2 (Homo sapiens, UniProt P08172); assay: Antagonist activity at human recombinant muscarinic M2 receptor expressed in CHO cells coexpressing chimeric G protein Gqi5 assessed as inhibition of acetylcholine-induced intracellular Ca2+ mobilization by FLIPR assay; type: functional, cell-based
T1 sequence (P08172 whole entry): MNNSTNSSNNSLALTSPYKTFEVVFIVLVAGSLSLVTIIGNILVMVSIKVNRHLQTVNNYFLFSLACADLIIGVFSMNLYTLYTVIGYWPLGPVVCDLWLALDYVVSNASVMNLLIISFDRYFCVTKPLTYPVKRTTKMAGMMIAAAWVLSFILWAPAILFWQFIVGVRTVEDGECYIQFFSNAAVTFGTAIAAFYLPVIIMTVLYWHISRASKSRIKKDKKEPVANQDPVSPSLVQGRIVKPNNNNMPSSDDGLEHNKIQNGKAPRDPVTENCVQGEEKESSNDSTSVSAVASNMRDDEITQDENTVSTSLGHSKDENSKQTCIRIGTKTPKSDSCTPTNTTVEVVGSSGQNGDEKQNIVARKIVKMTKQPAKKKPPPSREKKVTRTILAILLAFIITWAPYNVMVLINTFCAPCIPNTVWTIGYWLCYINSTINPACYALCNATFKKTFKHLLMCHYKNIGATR

[2] = target: T2, Muscarinic acetylcholine receptor M1 (Homo sapiens, UniProt P11229); assay: Antagonist activity at human recombinant muscarinic M1 receptor expressed in CHO cells assessed as inhibition of acetylcholine-induced intracellular Ca2+ mobilization by FLIPR assay; type: functional, cell-based
T2 sequence (P11229 whole entry): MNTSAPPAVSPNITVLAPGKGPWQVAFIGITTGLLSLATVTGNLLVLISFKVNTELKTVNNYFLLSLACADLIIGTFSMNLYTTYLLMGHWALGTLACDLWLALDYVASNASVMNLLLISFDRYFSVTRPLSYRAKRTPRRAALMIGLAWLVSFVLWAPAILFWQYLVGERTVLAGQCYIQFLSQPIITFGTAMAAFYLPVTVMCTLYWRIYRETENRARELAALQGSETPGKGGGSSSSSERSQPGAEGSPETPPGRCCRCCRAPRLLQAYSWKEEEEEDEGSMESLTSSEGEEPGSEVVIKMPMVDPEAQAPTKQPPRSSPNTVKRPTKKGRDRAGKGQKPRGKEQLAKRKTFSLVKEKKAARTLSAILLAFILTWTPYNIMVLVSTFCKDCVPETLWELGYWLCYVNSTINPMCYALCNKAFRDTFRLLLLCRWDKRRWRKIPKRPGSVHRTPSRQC

[3] = target: Muscarinic acetylcholine receptor M3 (Homo sapiens, UniProt P20309); assay: Antagonist activity at human recombinant muscarinic M3 receptor expressed in CHO cells assessed as inhibition of acetylcholine-induced intracellular Ca2+ mobilization by FLIPR assay; type: functional, cell-based
Muscarinic acetylcholine receptor M3, sequence (P20309 whole entry): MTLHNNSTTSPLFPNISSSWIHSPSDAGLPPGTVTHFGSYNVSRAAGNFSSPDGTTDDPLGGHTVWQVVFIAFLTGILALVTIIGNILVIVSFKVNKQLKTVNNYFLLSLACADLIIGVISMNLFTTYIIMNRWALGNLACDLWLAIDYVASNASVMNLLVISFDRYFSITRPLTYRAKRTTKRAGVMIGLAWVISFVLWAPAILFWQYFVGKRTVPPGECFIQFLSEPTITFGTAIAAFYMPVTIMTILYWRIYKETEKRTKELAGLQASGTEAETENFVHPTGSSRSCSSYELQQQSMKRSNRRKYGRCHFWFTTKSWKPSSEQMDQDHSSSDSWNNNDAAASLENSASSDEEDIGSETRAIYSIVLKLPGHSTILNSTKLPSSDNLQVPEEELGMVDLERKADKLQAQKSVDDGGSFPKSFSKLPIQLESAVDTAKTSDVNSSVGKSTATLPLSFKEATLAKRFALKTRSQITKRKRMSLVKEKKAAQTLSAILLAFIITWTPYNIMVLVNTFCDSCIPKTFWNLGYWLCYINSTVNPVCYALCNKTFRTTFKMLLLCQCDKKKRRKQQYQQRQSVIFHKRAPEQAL

[4] = target: Muscarinic acetylcholine receptor M1 and M3 (Homo sapiens) (UniProt P20309+P11229); assay: Selectivity for human recombinant muscarinic M3 receptor over human recombinant muscarinic M1 receptor
Muscarinic acetylcholine receptor M1 and M3 (Homo sapiens), sequence (P20309 whole entry, looked up, one chain of several): as the sequence (P20309 whole entry) above

[5] = target: Muscarinic acetylcholine receptors; M2 & M3 (Homo sapiens) (UniProt P20309+P08172); assay: Selectivity for human recombinant muscarinic M3 receptor over human recombinant muscarinic M2 receptor
Muscarinic acetylcholine receptors; M2 & M3 (Homo sapiens), sequence (P20309 whole entry, looked up, one chain of several): as the sequence (P20309 whole entry) above

| Compound | IC50 [1] | IC50 [2] | IC50 [3] | Selectivity ratio [4] | Selectivity ratio [5] |
| --- | --- | --- | --- | --- | --- |
| COC(=O)c1ccc(NC(=O)N[C@@H](Cc2ccc(O)cc2)C(=O)NC2CCN(Cc3ccc(O)cc3)C2)cc1 (stereo not given in full) | 316 nM | 1000 nM | 25.1 nM |  |  |
| CCOC(=O)c1ccc(NC(=O)N[C@@H](Cc2ccc(O)cc2)C(=O)NC2CCN(Cc3cccc(O)c3)C2)cc1 (stereo not given in full) | 158 nM | 794 nM | 20 nM | 100 | 10 |
| CCOC(=O)c1ccc(NC(=O)N[C@@H](Cc2ccc(O)cc2)C(=O)NC2CCN(Cc3ccc4c(c3)OCO4)C2)cc1 (stereo not given in full) | 200 nM | 1000 nM | 31.6 nM | 100 | 10 |
| CCOC(=O)c1ccc(NC(=O)N[C@@H](Cc2ccc(O)cc2)C(=O)NC2CCN(CC3CC3)C2)cc1 (stereo not given in full) | 100 nM | 631 nM | 25.1 nM | 100 | 10 |
| CCOC(=O)c1ccc(NC(=O)N[C@@H](Cc2ccc(O)cc2)C(=O)NC2CCN(Cc3cccc(C#N)c3)C2)cc1 (stereo not given in full) | 100 nM | 251 nM | 6.31 nM | 100 | 10 |
| CC(C)COC(=O)c1ccc(NC(=O)N[C@@H](Cc2ccc(O)cc2)C(=O)NC2CCN(Cc3ccc(O)cc3)C2)cc1 (stereo not given in full) | 1260 nM | > 3160 nM | 251 nM |  |  |
| CCOC(=O)c1ccc(NC(=O)N[C@@H](Cc2ccc(O)cc2)C(=O)NC2CCN(Cc3ccc(OC)cc3)C2)cc1 (stereo not given in full) | 251 nM | 501 nM | 20 nM | 100 | 10 |
| CCOC(=O)c1ccc(NC(=O)N[C@@H](Cc2ccc(-c3ccccc3)cc2)C(=O)N[C@H]2CC[N+](C)(Cc3ccc4c(c3)OCO4)C2)cc1 (stereo not given in full) | 5.01 nM | 12.6 nM | 15.8 nM |  |  |
| CCOC(=O)c1ccc(NC(=O)N[C@@H](Cc2ccc(O)cc2)C(=O)N[C@H]2CC[N+](C)(Cc3ccc4c(c3)OCO4)C2)cc1 (stereo not given in full) | 39.8 nM | 158 nM | 6.31 nM |  |  |
| CCOC(=O)c1ccc(NC(=O)N[C@@H](Cc2ccc(O)cc2)C(=O)N[C@H]2CC[N+](C)(Cc3ccc(O)cc3)C2)cc1 (stereo not given in full) | 39.8 nM | 251 nM | 6.31 nM |  |  |
| N#Cc1ccc(CN2CCC(NC(=O)[C@H](Cc3ccc(O)cc3)NC(=O)Nc3ccc(C(=O)NCc4ccccc4)cc3)C2)cc1 (stereo not given in full) | > 3160 nM | > 3160 nM | 1580 nM |  |  |
| CCOC(=O)c1ccc(NC(=O)N[C@@H](Cc2ccc(Br)cc2)C(=O)N[C@H]2CC[N+](C)(Cc3ccc4c(c3)OCO4)C2)cc1 (stereo not given in full) | 3.98 nM | 31.6 nM | 12.6 nM |  |  |
| N#Cc1ccc(CN2CCC(NC(=O)[C@H](Cc3ccc(O)cc3)NC(=O)Nc3ccc(C(=O)N4CCOCC4)cc3)C2)cc1 (stereo not given in full) | > 3160 nM | > 3160 nM | 1000 nM |  |  |
| CCOC(=O)c1ccc(NC(=O)N[C@@H](Cc2ccc(C(=O)c3ccccc3)cc2)C(=O)N[C@H]2CC[N+](C)(Cc3ccc4c(c3)OCO4)C2)cc1 (stereo not given in full) | 2.51 nM | 10 nM | 12.6 nM |  |  |
| CCOC(=O)c1ccc(NC(=O)N[C@@H](Cc2ccc(Cl)cc2)C(=O)N[C@H]2CC[N+](C)(Cc3ccc4c(c3)OCO4)C2)cc1 (stereo not given in full) | 6.31 nM | 39.8 nM | 10 nM |  |  |
| CNC(=O)c1ccc(NC(=O)N[C@@H](Cc2ccc(O)cc2)C(=O)NC2CCN(Cc3ccc(C#N)cc3)C2)cc1 (stereo not given in full) | > 3160 nM | > 3160 nM | 2510 nM |  |  |
| CCOC(=O)c1ccc(NC(=O)N[C@@H](Cc2ccc(O)cc2)C(=O)N[C@H]2CC[N+](C)(Cc3ccc(F)cc3)C2)cc1 (stereo not given in full) | 39.8 nM | 200 nM | 6.31 nM |  |  |
| CCOC(=O)c1ccc(NC(=O)N[C@@H](Cc2ccc(F)cc2)C(=O)N[C@H]2CC[N+](C)(Cc3ccc4c(c3)OCO4)C2)cc1 (stereo not given in full) | 10 nM | 100 nM | 15.8 nM |  |  |
| O=C(Nc1ccc(C(=O)OCC2CC2)cc1)N[C@@H](Cc1ccc(O)cc1)C(=O)NC1CCN(Cc2ccc(O)cc2)C1 (stereo not given in full) | 398 nM | 1000 nM | 100 nM |  |  |
| CCNC(=O)c1ccc(NC(=O)N[C@@H](Cc2ccc(O)cc2)C(=O)NC2CCN(Cc3ccc(C#N)cc3)C2)cc1 (stereo not given in full) | > 3160 nM | > 3160 nM | 316 nM |  |  |
